Laboratory results taken from patent US20240325312A1, “Composition comprising cannabidiol and hydroxychloroquine in a fixed dose combination capsule” (priority 2021, published 2024).

Key:
Lewis rats [1] = assay: Collagen-induced arthritis; assay type: in vivo; parameters: key to Relative reduction in pannus score / Relative reduction in total histology score / Reduction in pannus score / Reduction in total histology score / Reduction in IL-1B / Reduction in IL-6 / Reduction in clinical score: fractional reduction vs vehicle control, sham baseline subtracted
Description: Female Lewis rats were challenged with porcine type-II collagen with Freund's adjuvant on Day 1 (0.2 mg/0.2 mL/rat) by subcutaneous injection at the base of the tail to induce arthritis. A booster injection at 0.1 mg/0.1 mL/rat) was administered on Day 7. On Day 16, rats were allocated into groups of six based on hind paw volume, with animals allocated into groups to provide a similar distribution of hind paw volumes.
Vehicle and active agents (i.e., CBD and hydroxychloroquine) alone or in combination were administered intraperitoneally (IP) once a day starting from Day 17 to Day 30, i.e., for a total of 14 consecutive days.
Disease was assessed by measuring hind paw volume with plethysmometer and using a qualitative severity score system as outlined in Table 16 on Day 1, 7, 10, 14, 16, 18, 20, 22, 24, 26, 28 and 30.
Post-termination on Day 30, blood was collected from all rats and analysed for levels of the inflammatory cytokines […], IL-6 and TNF-α by ELISA. Both hind paws were harvested, weighed and formalin-fixed for histopathology. Tissue was assessed to evaluate cartilage and bone destruction by pannus formation and mononuclear cell infiltration in synovial tissues according to the scoring matrices set out in Tables 17 and 18. A total histology score, being the sum of the pannus formation and mononuclear cell infiltration score, was also calculated.
For synergy analysis, data were baseline subtracted using sham treated […] (i.e., no collagen injection), before normalizing the values relative to vehicle control. Synergy was calculated using the statistical methods described elsewhere herein.

[2] = system: human peripheral blood mononuclear cells (PBMCs); assay: LPS-stimulated cytokine release from human PBMCs, checkerboard, Luminex; assay type: cell-based
Description: The anti-inflammatory activity the combination of CBD and hydroxychloroquine was assessed by determining cytokine release from human peripheral blood mononuclear cells (PBMCs) stimulated with bacterial lipopolysaccharide (LPS) using a Luminex based assay. A 96-well microtitre plate-based checkerboard assay with seven concentrations (including the no drug control) of CBD and hydroxychloroquine were assessed in combination was used to determine the drug-drug interaction. Briefly, frozen PMBCs from two independent donors were thawed, diluted in culture medium, seeded into 96-well microtitre plates and incubated at 37° C., 5% CO2 for 1 hour prior to the addition of test compounds. After the addition of the test compounds the cells were returned to the incubator for 1 hour, after which LPS was added to the wells. Plates were incubated at 37° C., 5% CO2 for 24 hours. After 24 hours, cell culture supernatants were removed and analysed for cytokine levels using Luminex methodology according to manufacturers' instructions. All values had the vehicle background subtracted prior to further analysis. Three plates were set up in parallel using the PBMCs from the same donor. Inhibition of cytokine release was determined relative to the no treatment control (i.e., that was stimulated with LPS) and averaged across the three replicates. A cytotoxicity assay using AlmarBlue with the identical plate set up was performed in parallel.
(§1) Drug synergy was determined using the Bliss Independence method where the predicted effect of the drug combination is calculated using the equation: […]

Lewis rats [3] = assay: Collagen-induced arthritis; assay type: in vivo; details: Day 30
C57BL/6 mice = assay: Lipopolysaccharide (LPS)-induced sepsis, serum cytokines; assay type: in vivo
Description: Male C57BL/6 mice weighing 10-20 g were used. Vehicle and active agents (i.e., CBD and hydroxychloroquine) alone or in combination were administered intraperitoneally (IP) or orally at 1 hour before LPS (100 μg/100 μL/mouse) injected intravenously (IV). At 2 hours after LPS injection, blood was collected from all mice by cardiac puncture, sera processed and assayed for biomarkers using either the Th17-plex for IL-1β, IL-2, IL-10, IL-12 (p70), IFN-γ and TNF-α by Luminex, plus IL-6 and D-dimer by ELISA, or the 23-plex for IL-1α, IL-1β, IL-2, IL-3, IL-4, IL-5, IL-6, IL-9, IL-10, IL-12(p40), IL-12(p70), IL-13, IL-17A, Eotaxin, G-CSF, GM-CSF, IFN-γ, KC, MCP-1(MCAF), MIP-1α, […], RANTES, and TNF-α by Luminex, plus IL-6 by ELISA. ANOVA followed by Dunnett's test was applied for comparison between vehicle and treatment groups. p<0.05 is considered significant.
For synergy analysis, data were baseline subtracted using the cytokine levels of sham treated mice (i.e., no LPS injection), before normalizing the values for each cytokine relative to maximum values across the groups. The normalized values were used to calculate the relative inhibition where a value of 1 represents complete inhibition and a value of 0 represents no inhibition. Synergy was calculated using the statistical methods described elsewhere herein.
as §1

BALB/c mice = assay: TNBS-induced colitis; assay type: in vivo; details: H&E
Source text: Male BALB/c were used as an in vivo model of colitis, induced by intracolonic administration of 2,4,6-trinitrobenzene sulfonic acid (TNBS) in 50% ethanol, as previously described by Antoniou et al. (2016, Annals of Medicine and Surgery, 11: 9-15). Briefly, the ethanol disrupts the intestinal barrier, permitting TNBS to interact with colon proteins. Interaction of TNBS with high-molecular weight proteins renders them immunogenic, leading to Th1 mediated inflammation, which is causative of symptoms include inconsistent stool formation and blood in the faeces. […]
Other endpoint measures of stool consistency score (i.e., 0—normal stools, 1, soft but still formed stools, 2—very soft stools, 3—diarrhoea), faecal occult blood score (i.e., 0—negative hemoccult, 1—positive hemoccult, 2—blood traces in stool visible, 3—rectal bleeding), colon weight, colon macroscopic damage score (a composite of adhesions, strictures, ulcers/inflammations and wall thickness) and myeloperoxidase levels in the colon tissue were also assessed. The data from each of these endpoints was baseline subtracted using the equivalent measures from sham treated mice (i.e., no TNBS) and reduction in any measure calculated as a relative reduction. Synergy was calculated using the statistical methods described elsewhere herein.

**Q.** Which “Relative reduction in pannus score” value (Lewis rats [1]; Day 30, CBD 1 mg/kg) does the source give for `C=C(C)[C@@H]1CCC(C)=C[C@H]1c1c(O)cc(CCCCC)cc1O` [CBD, cannabidiol] here?
**A.** Its value is 0.07.

**Q.** What about the “Relative reduction in serum IL-6 level” value (Lewis rats [1]; Day 30, CBD 1 mg/kg) of the same molecule?
**A.** Its value is 0.50.

**Q.** And the “Relative reduction in total histology score” value (Lewis rats [1]; Day 30, CBD 1 mg/kg)?
**A.** Its value is 0.11.

**Q.** And the “FIE, IL-1α release” value ([2]; Donor 1, CBD 5.00 μg/mL)?
**A.** The value was 0.40.

**Q.** What about the “FIE, IL-1β release” value ([2]; Donor 1, CBD 5.00 μg/mL) of the same molecule?
**A.** Its value is 0.38.

**Q.** What about the “FIE, IL-6 release” value ([2]; Donor 1, CBD 5.00 μg/mL) of the same molecule?
**A.** The value was 0.08.

**Q.** What about the “FIE, MIP-1α release” value ([2]; Donor 1, CBD 5.00 μg/mL) of the same molecule?
**A.** The value was 0.12.

**Q.** And the “FIE, TNF-α release” value ([2]; Donor 1, CBD 5.00 μg/mL)?
**A.** The value was 0.05.

**Q.** What about the “FIE, IL-1α release” value ([2]; Donor 2, CBD 5.00 μg/mL) of the same molecule?
**A.** The value was 0.28.

**Q.** What about the “FIE, IL-1β release” value ([2]; Donor 2, CBD 5.00 μg/mL) of the same molecule?
**A.** The value was 0.13.

**Q.** And the “FIE, IL-6 release” value ([2]; Donor 2, CBD 5.00 μg/mL)?
**A.** The value was 0.09.

**Q.** And the “FIE, MIP-1α release” value ([2]; Donor 2, CBD 5.00 μg/mL)?
**A.** Its value is 0.00.

**Q.** What about the “FIE, TNF-α release” value ([2]; Donor 2, CBD 5.00 μg/mL) of the same molecule?
**A.** The value was 0.07.

**Q.** And the “Relative reduction in serum IL-1β level” value (Lewis rats [3]; CBD 1 mg/kg)?
**A.** The value was 0.31.

**Q.** What about the “Relative inhibition of IFN-γ release” value (C57BL/6 mice; CBD 10 mg/kg) of the same molecule?
**A.** The value was 0.00.

**Q.** What about the “Relative inhibition of IL-1β release” value (C57BL/6 mice; CBD 10 mg/kg) of the same molecule?
**A.** Its value is 0.34.

**Q.** And the “Relative inhibition of IL-6 release” value (C57BL/6 mice; CBD 10 mg/kg)?
**A.** Its value is 0.14.

**Q.** What about the “Relative inhibition of IL-12(p70) release” value (C57BL/6 mice; CBD 10 mg/kg) of the same molecule?
**A.** The value was 0.00.

**Q.** And the “Relative inhibition of TNF-α release” value (C57BL/6 mice; CBD 10 mg/kg)?
**A.** Its value is 0.00.

**Q.** And the “Relative inhibition of IL-6 release” value (C57BL/6 mice; CBD 25 mg/kg)?
**A.** The value was 0.03.

**Q.** And the “Colon tissue histology finding (FIG. 4)” value (BALB/c mice; CBD (1 mg/kg))?
**A.** The value was “regions of inflammatory cell infiltration in submucosal edema”.

**Q.** What does the source list for `CCN(CCO)CCCC(C)Nc1ccnc2cc(Cl)ccc12` (stereo not drawn) [HCQ, 2-[[4-[(7-chloro-4-quinolinyl)amino]pentyl]-thylamino]ethanol]?
**A.** Reduction in clinical score (Lewis rats [1]; Day 24, HCQ 25 mg/kg): 0.21; Reduction in paw volume (Lewis rats [1]; Day 24, HCQ 25 mg/kg): 0.10; Relative reduction in pannus score (Lewis rats [1]; Day 30, HCQ 2.5 mg/kg): 0.07; Relative reduction in serum IL-6 level (Lewis rats [1]; Day 30, HCQ 2.5 mg/kg): 0.51; Relative reduction in total histology score (Lewis rats [1]; Day 30, HCQ 2.5 mg/kg): 0.15; Reduction in clinical score (Lewis rats [1]; Day 30, HCQ 25 mg/kg): 0.26; Reduction in paw volume (Lewis rats [1]; Day 30, HCQ 25 mg/kg): 0.20; Reduction in mononuclear cell infiltration (Lewis rats [1]; HCQ 25 mg/kg): 0.24; Reduction in pannus score (Lewis rats [1]; HCQ 25 mg/kg): 0.28; Reduction in total histology score (Lewis rats [1]; HCQ 25 mg/kg): 0.26; Reduction in IL-1B (Lewis rats [1]; serum, HCQ 25 mg/kg): 0.25; Reduction in IL-6 (Lewis rats [1]; serum, HCQ 25 mg/kg): 0.36; FIE, IL-1α release ([2]; Donor 1, HCQ 0.63 μg/mL): 0.03; FIE, IL-1β release ([2]; Donor 1, HCQ 0.63 μg/mL): 0.08; FIE, IL-6 release ([2]; Donor 1, HCQ 0.63 μg/mL): 0.12; FIE, TNF-α release ([2]; Donor 1, HCQ 0.63 μg/mL): 0.00; FIE, IL-1α release ([2]; Donor 1, HCQ 1.25 μg/mL): 0.01; FIE, IL-1β release ([2]; Donor 1, HCQ 1.25 μg/mL): 0.07; FIE, IL-6 release ([2]; Donor 1, HCQ 1.25 μg/mL): 0.00; FIE, TNF-α release ([2]; Donor 1, HCQ 1.25 μg/mL): 0.08; FIE, IL-1α release ([2]; Donor 1, HCQ 2.50 μg/mL): 0.12; FIE, IL-1β release ([2]; Donor 1, HCQ 2.50 μg/mL): 0.08; FIE, IL-6 release ([2]; Donor 1, HCQ 2.50 μg/mL): 0.10; FIE, MIP-1α release ([2]; Donor 1, HCQ 2.50 μg/mL): 0.00; FIE, TNF-α release ([2]; Donor 1, HCQ 2.50 μg/mL): 0.05; FIE, IL-1α release ([2]; Donor 1, HCQ 5.00 μg/mL): 0.24; FIE, IL-1β release ([2]; Donor 1, HCQ 5.00 μg/mL): 0.17; FIE, IL-6 release ([2]; Donor 1, HCQ 5.00 μg/mL): 0.08; FIE, TNF-α release ([2]; Donor 1, HCQ 5.00 μg/mL): 0.02; FIE, IL-1α release ([2]; Donor 1, HCQ 10.00 μg/mL): 0.50; FIE, IL-1β release ([2]; Donor 1, HCQ 10.00 μg/mL): 0.68; FIE, IL-6 release ([2]; Donor 1, HCQ 10.00 μg/mL): 0.00; FIE, TNF-α release ([2]; Donor 1, HCQ 10.00 μg/mL): 0.04; FIE, IL-1α release ([2]; Donor 1, HCQ 20.00 μg/mL): 0.54; FIE, IL-1β release ([2]; Donor 1, HCQ 20.00 μg/mL): 0.81; FIE, IL-6 release ([2]; Donor 1, HCQ 20.00 μg/mL): 0.12; FIE, MIP-1α release ([2]; Donor 1, HCQ 20.00 μg/mL): 0.00; FIE, TNF-α release ([2]; Donor 1, HCQ 20.00 μg/mL): 0.30; FIE, IL-1α release ([2]; Donor 2, HCQ 0.63 μg/mL): 0.07; FIE, IL-1β release ([2]; Donor 2, HCQ 0.63 μg/mL): 0.06; FIE, IL-1α release ([2]; Donor 2, HCQ 1.25 μg/mL): 0.11; FIE, IL-1α release ([2]; Donor 2, HCQ 2.50 μg/mL): 0.19; FIE, IL-1β release ([2]; Donor 2, HCQ 2.50 μg/mL): 0.07; FIE, IL-1α release ([2]; Donor 2, HCQ 5.00 μg/mL): 0.49; FIE, TNF-α release ([2]; Donor 2, HCQ 5.00 μg/mL): 0.02; FIE, IL-1α release ([2]; Donor 2, HCQ 10.00 μg/mL): 0.68; FIE, IL-6 release ([2]; Donor 2, HCQ 10.00 μg/mL): 0.11; FIE, MIP-1α release ([2]; Donor 2, HCQ 10.00 μg/mL): 0.00; FIE, TNF-α release ([2]; Donor 2, HCQ 10.00 μg/mL): 0.18; FIE, IL-1α release ([2]; Donor 2, HCQ 20.00 μg/mL): 0.63; FIE, IL-6 release ([2]; Donor 2, HCQ 20.00 μg/mL): 0.47; FIE, MIP-1α release ([2]; Donor 2, HCQ 20.00 μg/mL): 0.00; Relative reduction in serum IL-1β level (Lewis rats [3]; HCQ 2.5 mg/kg): 0.37; Colon tissue histology finding (FIG. 4) (BALB/c mice; hydroxychloroquine (2.5 mg/kg)): regions of mild abnormality, cyctic dilation and aberrant crypts
